In patent US20130052281A1, “NOVEL COMPOUNDS” (Takeda Pharmaceutical Company Limited, priority 2011, published 2013) one finds IC50 data, which are given here for 2 compounds.

This assay concerns the target Human DAAO enzyme (Homo sapiens, UniProt P14920). Description: In Vitro DAAO Enzyme Assay (Amplex Red detection of H2O2 from D-Serine). In kind it is biochemical. As to conditions: inhibition of DAAO activity in the presence of 10 mM D-Serine; 60 minutes at 25° C.; ten point dose-response. How it is done: The Km of D-Serine was measured for each enzyme batch to maintain consistency; this Km was used in subsequent assays.
On the day of the assay compounds were serially diluted in DMSO before being diluted 1:20 with assay buffer (20 mM Tris ph 7.4). […] Finally 5 μl ‘Amplex’ red reagent (Invitrogen) was added to all wells as per manufacturer's protocol. The plate was incubated for 60 minutes in the dark at 25° C. and the fluorescence in each well was measured in the Envision plate reader.
Concentration response curves were generated using the average of duplicate wells for each data point and analyzed using non-linear regression and four parameter curve fit.

Sequence of Human DAAO enzyme (P14920 whole entry): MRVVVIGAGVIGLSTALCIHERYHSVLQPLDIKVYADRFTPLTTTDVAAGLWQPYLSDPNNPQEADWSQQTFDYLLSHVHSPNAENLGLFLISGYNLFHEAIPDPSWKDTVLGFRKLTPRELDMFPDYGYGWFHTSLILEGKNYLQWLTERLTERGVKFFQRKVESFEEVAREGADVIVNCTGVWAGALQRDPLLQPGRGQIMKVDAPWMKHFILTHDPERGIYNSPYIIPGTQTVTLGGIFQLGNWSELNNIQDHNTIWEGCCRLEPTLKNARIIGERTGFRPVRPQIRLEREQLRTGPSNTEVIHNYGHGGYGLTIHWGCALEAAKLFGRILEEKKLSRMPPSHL

In the case of `O=c1[nH]nc(CCc2cccc(OC(F)(F)F)c2)cc1O` [Example 10, 4-Hydroxy-6-{2-[3-(trifluoromethoxy)phenyl]ethyl}pyridazin-3(2H)-one], the IC50 (commonly the concentration at which inhibition is half-maximal) turned out to be 0.022 µM.

For `O=c1[nH]nc(CCc2cncc(C(F)(F)F)c2)cc1O` [Example 12, 4-Hydroxy-6-{2-[5-(trifluoromethyl)pyridin-3-yl]ethyl}pyridazin-3(2H)-one], the IC50 came to 0.023 µM.
